Values of other authors, collected in patent US20140348931A1, “SUSTAINED-RELEASE TOPIRAMATE FORMULATIONS” (CADILA HEALTHCARE LIMITED, priority 2013, published 2014).

Conditions: in vivo

- half-life: 21 h
Compound: CC1(C)OC2[C@@H](CO[C@@]3(COS(N)(=O)=O)OC(C)(C)O[C@@H]23)O1 (stereo partly drawn) [topiramate, 2, 3: 4, 5 Di-O-isopropylidene-β-D-fructopyranose sulfamate]
